The results in this text go back to patent US20240116994A1, “Peptides And Use Thereof For Diagnosing And Treating Antiphospholipid Syndrome” (UNIVERSITE DE GENEVE, priority 2021, published 2024).

Where no end group is shown, it is not given here.

The subject of this assay is aPL produced by mice. The assay can be described thus: ELISA of IgG anti-IIa-8.0-biot-2x in serum of lupus-prone mice. Particulars: serum of apoe−/−.Nba2.Yaa mice on HCD (FIG. 3A). Type of assay: binding. From the text: B6.Nba2. Yaa mice were generated as described.^8 The Apoe^−/− null mutation was introduced in B6.Nba2.Yaa mice by breeding. Eleven-week old Apoe^−/− C57B1/6 and Apoe^−/−Nba2.Yaa mice were subjected to 11 weeks of high cholesterol diet (HCD) (20.1% fat, 1.25% cholesterol, Research Diets, Inc., New Brunswick, NJ), as a model of advanced atherosclerosis. The treatments and atherosclerosis protocols were well-tolerated by the mice, and no adverse events (such as weight loss and signs of systemic toxicity) were reported. At sacrifice, haematological parameters were routinely measured. Animals were euthanized by exsanguination after anesthesia with 4% isoflurane. All breeding and experimental protocols and procedures were reviewed and approved by the Institutional Animal Care and Use Committee of the Geneva University School of Medicine.
Determination of aPL by ELISA—MaxiSorp™ 96 well plates (Nunc) or Streptavidin plate (Thermofisher) were coated with 10 μg/ml recombinant domains of β2GP1, peptides or biotinylated-peptide prior to incubation with aPLA. Secondary anti-human antibodies conjugated to IR800CW (Rockland) or HRP were used. Protein- or peptide-bound antibodies were detected and quantified by the Odyssey system (Li-Cor Biosciences) or absorbance in optical densities (OD) was determined at 405 nm (molecular Devices™ Filtermax). […]

Take “IIa-8.0-biot-2x: dimeric biotinylated IIa-8.0 peptide; also used associated with streptavidin magnetic beads (RSRGGMRKRKKPLTGRSRGGMRKRKKPLTG; also: dimeric peptide (two IIa-8.0 copies), biotinylated, site not given here)”: the “interaction with aPL produced by mice” value was “able to interact also with aPL produced by mice”.
